Experimental data as given in ChEMBL document CHEMBL5500420, “Discovery of BI-9508, a Brain-Penetrant GPR88-Receptor-Agonist Tool Compound for In Vivo Mouse Studies” (J Med Chem, 2024).
≈ marks a conversion by molar mass, not a printed value.

Key:
P-gp = test: Apparent permeability in P-gp overexpressing MDCK-MDR1 cells at 1 uM incubated upto 2 hrs; assay type: ADME, cell-based, Canis lupus familiaris; settings: dog
[1] = Protein binding in mouse plasma at 1 uM incubated for 2 hrs by equilibrium dialysis based HPLC-MS/MS analysis; assay type: ADME, cell-free; settings: read-out: PPB (converted)
[2] = Solubility of compound at pH 7 by high-throughput analysis; assay type: physicochemical; settings: buffer
[3] = target: T1, G protein-coupled receptor 88 (Mus musculus, UniProt Q9EPB7); test: Agonist activity at mouse GPR88 transfected in HEK293 cells incubated for 10 mins by Gi1 BRET assay; assay type: functional, cell-based
T1 sequence (Q9EPB7 whole entry): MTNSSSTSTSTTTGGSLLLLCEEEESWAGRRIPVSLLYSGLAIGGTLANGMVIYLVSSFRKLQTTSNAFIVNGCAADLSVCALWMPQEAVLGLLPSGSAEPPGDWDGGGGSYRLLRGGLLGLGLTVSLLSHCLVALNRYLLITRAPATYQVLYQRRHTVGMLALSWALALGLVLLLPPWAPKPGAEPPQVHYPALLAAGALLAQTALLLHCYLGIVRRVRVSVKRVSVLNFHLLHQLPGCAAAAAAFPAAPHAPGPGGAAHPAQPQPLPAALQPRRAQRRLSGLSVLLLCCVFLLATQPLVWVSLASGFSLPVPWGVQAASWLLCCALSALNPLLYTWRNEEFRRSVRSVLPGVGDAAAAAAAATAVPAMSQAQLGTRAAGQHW

[4] = target: G protein-coupled receptor 88 (Homo sapiens, UniProt Q9GZN0); test: Agonist activity at human GPR88 transfected in HEK293 cells incubated for 10 mins by Gi1 BRET assay
Chain of G protein-coupled receptor 88 (Homo sapiens, UniProt Q9GZN0) (Q9GZN0 whole entry): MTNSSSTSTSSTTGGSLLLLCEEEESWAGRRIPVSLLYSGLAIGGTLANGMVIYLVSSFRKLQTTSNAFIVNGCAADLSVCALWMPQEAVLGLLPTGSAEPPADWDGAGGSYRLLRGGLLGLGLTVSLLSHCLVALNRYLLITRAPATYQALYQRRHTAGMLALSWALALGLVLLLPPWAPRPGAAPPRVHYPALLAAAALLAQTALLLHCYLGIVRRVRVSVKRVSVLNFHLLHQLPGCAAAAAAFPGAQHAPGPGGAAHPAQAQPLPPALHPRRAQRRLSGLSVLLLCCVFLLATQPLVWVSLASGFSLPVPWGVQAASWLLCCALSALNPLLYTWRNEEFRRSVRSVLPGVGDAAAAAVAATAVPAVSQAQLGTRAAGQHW

[5] = target: T1, G protein-coupled receptor 88; test: Agonist activity at GPR88 in wildtype mouse striatal membrane assessed as stimulation of [35S]-GTPgammaS binding incubated for 1 hrs in presence of GDP by liquid scintillation counter

With `Cc1nnc2n1-c1sc(CCC(=O)N3CCOCC3)cc1C(c1ccccc1Cl)=NC2` [APAFANT] as the compound, how does the Papp at 2 h, 1 µM (P-gp) read?
The Papp at 2 h, 1 µM was 3 ×10⁻⁶ cm/s.

With `CC(C)Oc1ccc(-c2ccc(N(CCOC(F)F)C(=O)[C@@H]3C[C@H]3c3ccncn3)c3ncnn23)cc1` as the compound, how does the fraction unbound at 2 h, 1 µM [1] read?
The fraction unbound at 2 h, 1 µM was 0.062.

And the solubility [2]?
Its solubility is 11 µg/mL (≈ 21.6 µM).

Which fraction unbound at 2 h, 1 µM [1] does the source give for `CO[C@H](C)[C@H](N)CN(C(=O)[C@@H]1C[C@H]1c1ccncn1)c1ccc(-c2ccc(OC(C)C)nc2)cc1` here?
Its fraction unbound at 2 h, 1 µM is 0.052.

For `CC(C)Oc1ccc(-c2ccc(N(CCOC(F)F)C(=O)[C@@H]3C[C@H]3c3ccncn3)c3c2cnn3C)cc1`, which EC50 [3] is on record?
Its EC50 is 94 nM.

Which EC50 [4] does the source give for `CO[C@H](C)[C@H](N)CN(C(=O)[C@@H]1C[C@H]1c1ccncn1)c1ccc(-c2ccc(OC(C)C)cc2)cc1` here?
The EC50 was over 99000 nM.

With `COc1cc(-c2ccc(O[C@@H](C)C(F)(F)F)nc2)ccc1N(CCOC(F)F)C(=O)[C@@H]1C[C@H]1c1ccncn1` as the compound, how does the fraction unbound at 2 h, 1 µM [1] read?
Its fraction unbound at 2 h, 1 µM is 0.004.

With `COc1cc(-c2ccc(OC(C)C)cc2)ccc1N(C[C@@H](N)[C@@H](C)OC)C(=O)[C@@H]1C[C@H]1c1ccncn1` as the compound, how does the EC50 [4] read?
Its EC50 is 168 nM.

What about the EC50 [5] of the same compound?
The EC50 was 6100 nM.

And the EC50 [3]?
The EC50 was 226 nM.
